Experimental data published in a compilation of properties of binary mixtures (doi:10.1016/j.molliq.2009.05.001).

Assay: xn = mol fraction of the nth substance listed
Settings: 101 kPa; for viscosity: 298.1 K; for electrical conductivity: 298.15 K

CC[n+]1ccn(C)c1.N#C[N-]C#N + CC[n+]1ccn(C)c1.F[B-](F)(F)F
viscosity (x2 = 0): 17.4 mPa·s | viscosity (x2 = 0.2164): 19.7 mPa·s | viscosity (x2 = 0.3218): 21.4 mPa·s | viscosity (x2 = 0.474): 23 mPa·s | electrical conductivity (x2 = 0): 2.83 S/m | electrical conductivity (x2 = 0.0448): 2.79 S/m | electrical conductivity (x2 = 0.2164): 2.61 S/m | electrical conductivity (x2 = 0.3218): 2.49 S/m | electrical conductivity (x2 = 0.474): 2.3 S/m | electrical conductivity (x2 = 0.6254): 2.1 S/m | electrical conductivity (x2 = 0.7856): 1.87 S/m | electrical conductivity (x2 = 0.9447): 1.64 S/m

CC[n+]1ccn(C)c1.F[B-](F)(F)F + CC[n+]1ccn(C)c1.N#C[N-]C#N
viscosity (x1 = 1): 36.8 mPa·s | electrical conductivity (x1 = 1): 1.55 S/m
